SMILES strings stand for the structures.

The experiment addresses KRasG12C (M1-K169, biotinylated on the N-terminus) (Homo sapiens (Human), UniProt P01116, G12C). Kind of experiment: Covalent competition assay: scintillation proximity assay (SPA) quantifying covalent modification of KRASG12C. The class given is binding. As to conditions: competition with radiolabeled covalent probe (Compound B/Compound A), 2 hours incubation, 10 nM KRasG12C. The procedure, abridged: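 Scintillation proximity readout after streptavidin bead capture (30 min) of biotinylated KRasG12C(M1-K169):GDP, 10 nM final, which was covalently labelled over 2 h by 25 nM radio-probe plus 475 nM cold probe unless blocked by compound.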
What is called IC50 is the midpoint of a concentration-inhibition curve. As to `C=CC(=O)N1CC2(CC(n3nc(N4CCN(CCOC)C[C@@]4(C)C(F)F)c(-c4c(Cl)c(C)cc5[nH]ncc45)c3C)C2)C1` (single isomer, unassigned) [Example 179a], the IC50 is > 5000 nM.

For the compound `C=CC(=O)N1CC2(CC(n3nc(N4CCC(C)(O)CC4(C)C)c(-c4c(Cl)c(C)cc5[nH]ncc45)c3C)C2)C1` (single isomer, unassigned) [Example 28b, 1-(6-(4-(5-chloro-6-methyl-1H-indazol-4-yl)-3-(4-hydroxy-2,2,4-trimethylpiperidin-1-yl)-5-methyl-1H-pyrazol-1-yl)-2-azaspiro[3.3]heptan-2-yl)prop-2-en-1-one], the IC50 was 1300 nM.

Turning to `C=CC(=O)N1CC2(CC(n3nc(N4CCN(C(=O)[C@@H]5CCCO5)CC45CCC5)c(-c4c(Cl)c(C)cc5[nH]ncc45)c3C)C2)C1` (single isomer, unassigned) [Example 124a], the IC50 was > 5000 nM.

`C=CC(=O)N1CC2(CC(n3nc(N4CCN(C[C@@H]5COCCO5)C[C@]4(C)CCOC)c(-c4c(Cl)c(C)cc5[nH]ncc45)c3C)C2)C1` (single isomer, unassigned) [Example 85b]: the IC50 was 8 nM.

`C=CC(=O)N1CC2(CC(n3nc(N4CC[C@@H](CN5CC6(CCOC6)C5)CC4(C)C)c(-c4c(Cl)c(Cl)cc5[nH]ncc45)c3C)C2)C1` (single isomer, unassigned) [Example 316b]: the IC50 was 9 nM.

Turning to `C=CC(=O)N1CC2(CC(n3nc(N4CC[C@@H](CN5CC6(CCCN6C(C)=O)C5)CC4(C)C)c(-c4c(Cl)c(Cl)cc5[nH]ncc45)c3C)C2)C1` (single isomer, unassigned) [Example 285a], the IC50 turned out to be 4600 nM.

On to `C=CC(=O)N1CC2(CC(n3nc(N4CCN(C(C)=O)CC4(C)C)c(-c4cc(O)cc5ccccc45)c3C)C2)C1` [Example 77, 1-(6-(3-(4-acetyl-2,2-dimethylpiperazin-1-yl)-4-(3-hydroxynaphthalen-1-yl)-5-methyl-1H-pyrazol-1-yl)-2-azaspiro[3.3]heptan-2-yl)prop-2-en-1-one], for which the IC50 is 1200 nM.

Consider `C=CC(=O)N1CC2(CC(n3nc(N4CCN(C(COC)COC)C[C@]4(C)CC)c(-c4c(Cl)c(C)cc5[nH]ncc45)c3C)C2)C1` (single isomer, unassigned) [Example 187b], for which the IC50 was 5 nM.

Regarding `C=CC(=O)N1CC2(CC(n3nc(N4CCC5(CN(C)CCO5)CC4(C)C)c(-c4c(Cl)c(C)cc5[nH]ncc45)c3C)C2)C1` (single isomer, unassigned) [Example 208a, 1-(6-(4-(5-chloro-6-methyl-1H-indazol-4-yl)-5-methyl-3-(4,8,8-trimethyl-1-oxa-4,9-diazaspiro[5.5]undecan-9-yl)-1H-pyrazol-1-yl)-2-azaspiro[3.3]heptan-2-yl)prop-2-en-1-one], the IC50 is 64 nM.

For the compound `C=CC(=O)N1CC2(CC(n3nc(N4CCC5(CN(C6COC6)C5)CC4(C)C)c(-c4c(Cl)c(Cl)cc5[nH]ncc45)c3C)C2)C1` (single isomer, unassigned) [Example 92a, 1-(6-(4-(5,6-dichloro-1H-indazol-4-yl)-3-(6,6-dimethyl-2-(oxetan-3-yl)-2,7-diazaspiro[3.5]nonan-7-yl)-5-methyl-1H-pyrazol-1-yl)-2-azaspiro[3.3]heptan-2-yl)prop-2-en-1-one], the IC50 was 2100 nM.

In the case of `C=CC(=O)N1CC2(CC(n3nc(N4CCN(C(=O)C(F)F)CC4(C)C)c(-c4c(Cl)c(C)cc5[nH]ncc45)c3C)C2)C1` (single isomer, unassigned) [Example 128b, 1-(6-(4-(5-chloro-6-methyl-1H-indazol-4-yl)-3-(4-(2,2-difluoroacetyl)-2,2-dimethylpiperazin-1-yl)-5-methyl-1H-pyrazol-1-yl)-2-azaspiro[3.3]heptan-2-yl)prop-2-en-1-one], the IC50 turned out to be 54 nM.

Turning to `C=CC(=O)N1CC2(CC(n3nc(N4CCS(=O)(=O)CC4(C)C)c(-c4c(Cl)c(C)cc5[nH]ncc45)c3C)C2)C1` (single isomer, unassigned) [Example 82b, 1-(6-(4-(5-chloro-6-methyl-1H-indazol-4-yl)-3-(3,3-dimethyl-1,1-dioxidothiomorpholino)-5-methyl-1H-pyrazol-1-yl)-2-azaspiro[3.3]heptan-2-yl)prop-2-en-1-one], the IC50 is 831 nM.

On to `C=CC(=O)N1CC2(CC(n3nc(N4CC[C@@H](CN5CC6(COCCN6C)C5)CC4(C)C)c(-c4c(Cl)c(Cl)cc5[nH]ncc45)c3C)C2)C1` (single isomer, unassigned) [Example 291b], for which the IC50 stood at 8 nM.

Consider `C=CC(=O)N1CC2(CC(n3nc(N4CCN(CCN5CCOCC5=O)C[C@]4(C)CC)c(-c4c(Cl)c(C)cc5[nH]ncc45)c3C)C2)C1` (single isomer, unassigned) [Example 177b], for which the IC50 worked out at 1700 nM.

Regarding `C=CC(=O)N1CC2(CC(n3nc(N4CC[C@@H](CN5C[C@@H]6CN(C(C)=O)C[C@@H]6C5)CC4(C)C)c(-c4c(Cl)c(Cl)cc5[nH]ncc45)c3C)C2)C1` (single isomer, unassigned) [Example 295a], the IC50 came to 2000 nM.

With `C=CC(=O)N1CC2(CC(n3nc(N4CCN(CC(C)(C)O)CC45CCC5)c(-c4c(Cl)c(F)cc5[nH]ncc45)c3C)C2)C1` (single isomer, unassigned) [Example 167b, 1-(6-(4-(5-chloro-6-fluoro-1H-indazol-4-yl)-3-(8-(2-hydroxy-2-methylpropyl)-5,8-diazaspiro[3.5]nonan-5-yl)-5-methyl-1H-pyrazol-1-yl)-2-azaspiro[3.3]heptan-2-yl)prop-2-en-1-one], the IC50 was 31 nM.

`C=CC(=O)N1CC2(CC(n3nc(N4CCN(CC(C)(C)O)CC45CCCC5)c(-c4c(Cl)c(C)cc5[nH]ncc45)c3C)C2)C1` (single isomer, unassigned) [Example 165b, 1-(6-(4-(5-chloro-6-methyl-1H-indazol-4-yl)-3-(9-(2-hydroxy-2-methylpropyl)-6,9-diazaspiro[4.5]decan-6-yl)-5-methyl-1H-pyrazol-1-yl)-2-azaspiro[3.3]heptan-2-yl)prop-2-en-1-one]: the IC50 worked out at 26 nM.

With `C=CC(=O)N1CC2(CC(n3nc(N4CCN(C5COC5)C[C@@]4(C)CC)c(-c4c(Cl)c(C)cc5[nH]ncc45)c3C)C2)C1` (single isomer, unassigned) [Example 143b], the IC50 stood at 39 nM.

Turning to `C=CC(=O)N1CC2(CC(n3nc(N4CCC(C)(O)CC4(C)C)c(-c4c(Cl)c(C)cc5[nH]ncc45)c3C)C2)C1` (single isomer, unassigned) [Example 28a, 1-(6-(4-(5-chloro-6-methyl-1H-indazol-4-yl)-3-(4-hydroxy-2,2,4-trimethylpiperidin-1-yl)-5-methyl-1H-pyrazol-1-yl)-2-azaspiro[3.3]heptan-2-yl)prop-2-en-1-one], the IC50 worked out at 76 nM.

For `C=CC(=O)N1CC2(CC(n3nc(N4CCN(C[C@@H]5COCCO5)C[C@]4(C)COC)c(-c4c(Cl)c(C)cc5[nH]nc(N)c45)c3C)C2)C1` (single isomer, unassigned) [Example 118b], the IC50 was 818 nM.

Turning to `C=CC(=O)N1CC2(CC(n3nc(N4CCN(CC(C)(C)O)CC45CCC5)c(-c4c(Cl)c(C)cc5[nH]ncc45)c3C)C2)C1` (single isomer, unassigned) [Example 160a, 1-(6-(4-(5-Chloro-6-methyl-1H-indazol-4-yl)-3-(8-(2-hydroxy-2-methylpropyl)-5,8-diazaspiro[3.5]nonan-5-yl)-5-methyl-1H-pyrazol-1-yl)-2-azaspiro[3.3]heptan-2-yl)prop-2-en-1-one], the IC50 was > 5000 nM.

Consider `C=CC(=O)N1CC2(CC(n3nc(N4CCN(C[C@H]5CCCO5)CC45CCC5)c(-c4c(Cl)c(C)cc5[nH]ncc45)c3C)C2)C1` (single isomer, unassigned) [Example 153b], for which the IC50 worked out at 19 nM.

In the case of `C=CC(=O)N1CC2(CC(n3nc(N4CCN(c5cnn(C)c5)CC4(C)C)c(-c4c(Cl)c(C)cc5[nH]ncc45)c3C)C2)C1` (single isomer, unassigned) [Example 193a, 1-(6-(4-(5-Chloro-6-methyl-1H-indazol-4-yl)-3-(2,2-dimethyl-4-(1-methyl-1H-pyrazol-4-yl)piperazin-1-yl)-5-methyl-1H-pyrazol-1-yl)-2-azaspiro[3.3]heptan-2-yl)prop-2-en-1-one], the IC50 worked out at 20800 nM.

Regarding `C=CC(=O)N1CC2(CC(n3nc(N4CCN(C(C)=O)CC4(C)C)c(-c4c(Cl)c(C)cc5[nH]ncc45)c3C3CC3)C2)C1` (single isomer, unassigned) [Example 24a, 1-(6-(3-(4-acetyl-2,2-dimethylpiperazin-1-yl)-4-(5-chloro-6-methyl-1H-indazol-4-yl)-5-cyclopropyl-1H-pyrazol-1-yl)-2-azaspiro[3.3]heptan-2-yl)prop-2-en-1-one], the IC50 is > 50000 nM.

For the compound `C=CC(=O)N1CC2(CC(n3nc(N4CCC(O)CC4(C)C)c(-c4c(Cl)c(C)cc5[nH]ncc45)c3C)C2)C1` (single isomer, unassigned) [Example 30a, 1-(6-(4-(5-chloro-6-methyl-1H-indazol-4-yl)-3-(4-hydroxy-2,2-dimethylpiperidin-1-yl)-5-methyl-1H-pyrazol-1-yl)-2-azaspiro[3.3]heptan-2-yl)prop-2-en-1-one], the IC50 was 514 nM.

As to `C=CC(=O)N1CC2(CC(n3nc(N4CC[C@@H](CN5CCN6C(=O)COC[C@@H]6C5)CC4(C)C)c(-c4c(Cl)c(Cl)cc5[nH]ncc45)c3C)C2)C1` (single isomer, unassigned) [Example 275b], the IC50 was 7 nM.

Turning to `C=CC(=O)N1CC2(CC(n3nc(N4CC[C@@H](CN5CCOCC5)CC4(C)C)c(-c4c(C)c(Cl)cc5[nH]ncc45)c3C)C2)C1` (single isomer, unassigned) [Example 233b], the IC50 turned out to be 20 nM.

For `C=CC(=O)N1CC2(CC(n3nc(N4CC[C@@H](CN5CCC6(C5)CN(C(C)=O)C6)CC4(C)C)c(-c4c(Cl)c(Cl)cc5[nH]ncc45)c3C)C2)C1` (single isomer, unassigned) [Example 317b], the IC50 worked out at 7 nM.

The record behind these values is patent US20240317721A1, “PYRAZOLYL DERIVATIVES AS INHIBITORS OF THE KRAS MUTANT PROTEIN” (NOVARTIS AG, priority 2021, published 2024).
